This data set can be described thus: in vitro. The settings on record: human, hela cells, % viability.

A word on the viability: it is a read-out of living cells in per cent, often relative to untreated cells. On to `FC(F)(F)Oc1ccc(-c2cncc(N3CCN(c4ccncc4)CC3)n2)cc1` [CBK059230C], for which the viability at 28.5 h, 10 µM stood at 88.9%.

Regarding `COc1ccc([C@@]23CC[C@@H](NC(=O)Nc4cccc(-c5cnco5)c4)C[C@@H]2N(C)CC3)cc1OC` [CBK059338T], the viability at 28.5 h, 10 µM was found to be 92.3%.

For the compound `COc1ccc(C2CCCC(N(CCN(C)C)C(=O)Nc3ccc(F)c(F)c3)C2)cc1OC` (stereo not shown) [CBK059339C], the viability at 28.5 h, 10 µM came to 84.8%.

`O=S(=O)(CC(F)(F)F)Nc1ccc(N2CCNCC2)c2ccccc12` [CBK059354C]: the viability at 28.5 h, 10 µM turned out to be 90.6%.

In the case of `O=C(Nc1ccccc1-n1cccc1)C1Cc2c([nH]c3ccccc23)C2(CCN(Cc3ccccc3)C2)N1` (stereo not shown) [CBK059395], the viability at 28.5 h, 10 µM came out at 95.9%.

On to `O=C(CN1CCc2c([nH]c3ccccc23)C12CCN(Cc1ccc(F)cc1)C2)Nc1ccccc1` (stereo not shown) [CBK059450], for which the viability at 28.5 h, 10 µM was determined as 96%.

Turning to `O=C(Cc1ccccc1)N1CCc2c([nH]c3ccccc23)C12CCNC2` (stereo not shown) [CBK059461], the viability at 28.5 h, 10 µM stood at 98.9%.

Consider `CC(C)(C)C(=O)N1CCc2c([nH]c3ccccc23)C12CCNC2` (stereo not shown) [CBK059462], for which the viability at 28.5 h, 10 µM was 97.5%.

As for `Fc1ccc(CN2CCC3(C2)c2[nH]c4ccccc4c2CCN3Cc2ccc(F)cc2)cc1` (stereo not shown) [CBK059467], the viability at 28.5 h, 10 µM worked out at 85.8%.

As for `COc1cccc(CN2CCC3(C2)c2[nH]c4ccccc4c2CCN3Cc2cccc(OC)c2)c1` (stereo not shown) [CBK059468], the viability at 28.5 h, 10 µM was found to be 90.5%.

In the case of `COc1ccc(NC(=O)CC2SC(NC3CCCCC3)=NC2=O)c(OC)c1` (stereo not shown) [CBK059502], the viability at 28.5 h, 10 µM was 93.7%.

Take `COc1ccc2[nH]c3c(c2c1)CCNC31CCN(CCCN2C(=O)C3CCCCC3C2=O)C1` (stereo not shown) [CBK059518]: the viability at 28.5 h, 10 µM worked out at 88.9%.

On to `O=C(CN1CCOCC1)NC1(c2ccccc2)CCCCC1` [CBK059545C], for which the viability at 28.5 h, 10 µM was determined as 85.6%.

On to `Cc1ccc(C)c(NC(=O)N2CCC3(CCc4nccc(C)c4C3=O)CC2)c1` [CBK059554], for which the viability at 28.5 h, 10 µM was 91.6%.

Take `Cc1ccnc2c1C(=O)C1(CC2)CCN(S(=O)(=O)c2c(C)noc2C)CC1` [CBK059557T]: the viability at 28.5 h, 10 µM is 80.4%.

In the case of `CNC1CCC2(c3ccc(OC)c(OC)c3)CCN(C)C2C1` (stereo not shown) [CBK059586C], the viability at 28.5 h, 10 µM came to 87.3%.

Take `O=C(NC(c1ccc(Cl)cc1)c1cnccn1)C1CCN(C(=O)N2CCOCC2)CC1` (stereo not shown) [CBK059635]: the viability at 28.5 h, 10 µM was determined as 96.7%.

For the compound `Cc1cc(C(=O)N2CCC(C(=O)NC(c3ccccc3)c3ccc4ccccc4n3)CC2)no1` (stereo not shown) [CBK059641], the viability at 28.5 h, 10 µM is 100%.

As to `COc1ccccc1C(NC(=O)C1CCN(C(=O)OC(C)C)CC1)c1ccccn1` (stereo not shown) [CBK059649], the viability at 28.5 h, 10 µM came to 111%.

Turning to `Cc1ccc(C(=O)N2CCC(C(=O)NC(c3ccccc3)c3ccc4ccccc4n3)CC2)cc1` (stereo not shown) [CBK059663], the viability at 28.5 h, 10 µM came out at 87.9%.

In the case of `CC(C)COC(=O)N1CCC(C(=O)NC(c2ccc(Cl)cc2)c2cnccn2)CC1` (stereo not shown) [CBK059668], the viability at 28.5 h, 10 µM was 99.2%.

Turning to `Cc1ccccc1C(NC(=O)C1CCN(C(=O)CCC2CCCC2)CC1)c1ccccn1` (stereo not shown) [CBK059677], the viability at 28.5 h, 10 µM came out at 90.5%.

For `COCCOC(=O)N1CCC(C(=O)NC(c2ccc(Cl)cc2)c2cccs2)CC1` (stereo not shown) [CBK059702], the viability at 28.5 h, 10 µM was 104%.

As for `COc1ccc(C(NC(=O)C2CCN(C(=O)OC(C)C)CC2)c2ccccc2C)cn1` (stereo not shown) [CBK059704], the viability at 28.5 h, 10 µM is 101%.

As for `O=C(NC(c1ccc(F)cc1)c1ccccn1)C1CCN(C(=O)c2ccno2)CC1` (stereo not shown) [CBK059705], the viability at 28.5 h, 10 µM came to 99.9%.

On to `O=C(NC(c1ccc(Cl)cc1)c1cccnc1)C1CCN(C(=O)c2ccco2)CC1` (stereo not shown) [CBK059708], for which the viability at 28.5 h, 10 µM is 92.4%.

Turning to `COc1ccc(C(NC(=O)C2CCN(C(=O)Oc3ccccc3)CC2)c2ccccc2C)cn1` (stereo not shown) [CBK059715], the viability at 28.5 h, 10 µM came to 91.1%.

In the case of `COc1ccc(C(NC(=O)C2CCN(C(=O)C(C)(C)C)CC2)c2cnccn2)cc1` (stereo not shown) [CBK059791], the viability at 28.5 h, 10 µM was determined as 97%.

Consider `Cc1cc(C(=O)N2CCC(C(=O)NC(c3cnccn3)c3ccccc3C)CC2)no1` (stereo not shown) [CBK059810], for which the viability at 28.5 h, 10 µM worked out at 93.6%.

With `CN(C(=O)N1CCC(C(=O)NC(c2ccccc2)c2ccco2)CC1)c1ccccc1` (stereo not shown) [CBK059877], the viability at 28.5 h, 10 µM worked out at 89%.

`CC(=O)N1CCC(C(=O)NC(c2ccc3c(c2)OCO3)c2cccs2)CC1` (stereo not shown) [CBK059881]: the viability at 28.5 h, 10 µM turned out to be 101%.

For the compound `O=C(NC(c1ccccc1)c1ccco1)C1CCN(C(=O)CCC2CCCC2)CC1` (stereo not shown) [CBK059887], the viability at 28.5 h, 10 µM stood at 90.4%.

For the compound `CS(=O)(=O)N1CCC(C(=O)NC(c2ccccc2)c2cnccn2)CC1` (stereo not shown) [CBK059901], the viability at 28.5 h, 10 µM was 105%.

In the case of `COc1cccc(C(NC(=O)C2CCN(C(=O)c3ccccc3)CC2)c2ccccn2)c1` (stereo not shown) [CBK060036], the viability at 28.5 h, 10 µM was 103%.

Regarding `O=C(NC(c1ccc(Cl)cc1)c1ccsc1)C1CCN(C(=O)Oc2ccc(Cl)cc2)CC1` (stereo not shown) [CBK060044], the viability at 28.5 h, 10 µM was 88.5%.

In the case of `Cc1cccnc1C(c1ccc(F)cc1)N(C)C(=O)C1CCN(C(=O)OCc2ccccc2)CC1` (stereo not shown) [CBK060095], the viability at 28.5 h, 10 µM was 116%.

Turning to `Cc1cccnc1C(NC(=O)C1CCN(C(=O)N2CCCC2)CC1)c1cccs1` (stereo not shown) [CBK060124], the viability at 28.5 h, 10 µM is 106%.

Consider `Cc1cccnc1C(NC(=O)C1CCN(S(=O)(=O)c2cccs2)CC1)c1cccs1` (stereo not shown) [CBK060147], for which the viability at 28.5 h, 10 µM turned out to be 111%.

Consider `O=C(NC(c1ccccn1)c1cccs1)C1CCN(S(=O)(=O)c2ccc(C(F)(F)F)cc2)CC1` (stereo not shown) [CBK060153], for which the viability at 28.5 h, 10 µM came out at 92.4%.

Regarding `O=C(NC(c1ccccc1)c1ccsc1)C1CCN(S(=O)(=O)c2cccc(Cl)c2)CC1` (stereo not shown) [CBK060188], the viability at 28.5 h, 10 µM turned out to be 97.7%.

For the compound `COc1ccc(S(=O)(=O)N2CCC(C(=O)N(C)C(c3cnccn3)c3ccccc3C)CC2)cc1` (stereo not shown) [CBK060210], the viability at 28.5 h, 10 µM was determined as 99.3%.

Consider `CN(C(=O)C1CCN(S(=O)(=O)c2cn(C)cn2)CC1)C(c1ccc(F)cc1)c1ccccn1` (stereo not shown) [CBK060229], for which the viability at 28.5 h, 10 µM was determined as 83.8%.

For `Cc1ccccc1C(c1cnccn1)N(C)C(=O)C1CCN(S(=O)(=O)C(C)C)CC1` (stereo not shown) [CBK060242], the viability at 28.5 h, 10 µM amounted to 101%.

As for `C=CCOC(=O)N1CCC(C(=O)N(C)C(c2cccc(OC)c2)c2ccccn2)CC1` (stereo not shown) [CBK060244], the viability at 28.5 h, 10 µM is 91.5%.

Regarding `Cc1ccccc1C(c1cnccn1)N(C)C(=O)C1CCN(S(=O)(=O)c2cn(C)cn2)CC1` (stereo not shown) [CBK060264], the viability at 28.5 h, 10 µM was 93.1%.

With `Cc1ccccc1C(NC(=O)C1CCN(C(=O)NCCc2ccccc2)CC1)c1ncccc1C` (stereo not shown) [CBK060409], the viability at 28.5 h, 10 µM came out at 91%.

Regarding `COc1ccc(C(c2ccccc2C)N(C)C(=O)C2CCN(C(C)=O)CC2)cn1` (stereo not shown) [CBK060490], the viability at 28.5 h, 10 µM turned out to be 90.8%.

Take `O=C(NC(c1ccccc1)c1cccnc1)C1CCN(C(=O)CN2C(=O)c3ccccc3C2=O)CC1` (stereo not shown) [CBK060515]: the viability at 28.5 h, 10 µM was 108%.

In the case of `COc1ccccc1C(=O)N1CCC(C(=O)N(C)C(c2ccccc2)c2ncccc2C)CC1` (stereo not shown) [CBK060531], the viability at 28.5 h, 10 µM was 75.4%.

Consider `O=C(Nc1ccccc1F)N1CCC2(CC1)OCc1cc(-c3ccco3)ccc1O2` [CBK060597], for which the viability at 28.5 h, 10 µM (bulk resorufin, single well) was 92%.

Regarding `COc1cccc2c1OC1(CCN(C(=O)Nc3ccc(F)cc3F)CC1)OC2` [CBK060689], under “bulk resorufin, single well”, the viability at 28.5 h, 10 µM is 100%.

Turning to `CSc1cc(C)c2c(c1)COC1(CCN(C(=O)Nc3c(C)noc3C)CC1)O2` [CBK060699], the viability at 28.5 h, 10 µM (bulk resorufin, single well) came out at 95.3%.

For the origin of these results see paper PMC12040169 (PLOS Biology, 2025).
